Laboratory results: ChEMBL document CHEMBL1201862, “PubChem BioAssay data set” (2004)
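Grown in 96-well plates, cells were treated for 48 hours with each compound at five concentrations. Insufficient inhibition: endpoint recorded as highest concentration tested. Here, GI50 denotes the concentration required for 50% inhibition of growth.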 The source made the active and inactive calls. Cut-off read from the data, not from the text of the source: active = GI50 up to about 1.1 µM and inactive = higher.

Columns and labels:
Assay in all cases: NCI-60 cell line screen, 48 h
OVCAR-5 = system: OVCAR-5
RXF 393 = system: RXF 393
TK-10 = system: TK-10
UACC-62 = system: UACC-62
U-251 = system: U-251
SW-620 = system: SW-620
OVCAR-3 = system: OVCAR-3
SNB-19 = system: SNB-19
HCC 2998 = system: HCC 2998
NCI-H522 = system: NCI-H522
SNB-75 = system: SNB-75
UACC-257 = system: UACC-257
SK-MEL-5 = system: SK-MEL-5
IGROV-1 = system: IGROV-1
MCF7 = system: MCF7
786-0 = system: 786-0
KM12 = system: KM12
M14 = system: M14
EKVX = system: EKVX
MDA-N = system: MDA-N

SMILES | GI50 (OVCAR-5) | GI50 (RXF 393) | GI50 (TK-10) | GI50 (UACC-62) | GI50 (U-251) | GI50 (SW-620) | GI50 (OVCAR-3) | GI50 (SNB-19) | GI50 (HCC 2998) | GI50 (NCI-H522) | GI50 (SNB-75) | GI50 (UACC-257) | GI50 (SK-MEL-5) | GI50 (IGROV-1) | GI50 (MCF7) | GI50 (786-0) | GI50 (KM12) | GI50 (M14) | GI50 (EKVX) | GI50 (MDA-N)
Cc1c2c(n3c(nc4ccccc43)c1C#N)N(c1ccc(F)cc1)CC2 | > 100 µM (inactive) | > 100 µM (inactive) | > 100 µM (inactive) | > 100 µM (inactive) | > 100 µM (inactive) | > 100 µM (inactive) | > 100 µM (inactive) | > 100 µM (inactive) | > 100 µM (inactive) | > 100 µM (inactive) | > 100 µM (inactive) | > 100 µM (inactive) | > 100 µM (inactive) | > 100 µM (inactive) | > 100 µM (inactive) | > 100 µM (inactive) |  |  |  | 
CN(C)c1ccc(/C=N/c2nc3cc4sc(/N=C/c5ccc(N(C)C)cc5)nc4cc3s2)cc1 | > 100 µM (inactive) |  | 80.7 µM (inactive) | > 100 µM (inactive) | 50.5 µM (inactive) | 33.9 µM (inactive) | 36.9 µM (inactive) | 77.6 µM (inactive) |  | 9.98 µM (inactive) | 63.2 µM (inactive) | > 100 µM (inactive) | > 100 µM (inactive) | > 100 µM (inactive) | 12.6 µM (inactive) | 49.7 µM (inactive) | 46.7 µM (inactive) | > 100 µM (inactive) | > 100 µM (inactive) | 
C#CC1(O)CC(c2ccccc2)N(C)C(c2ccccc2)C1 (centres undefined) | > 100 µM (inactive) | > 100 µM (inactive) | > 100 µM (inactive) | > 100 µM (inactive) | > 100 µM (inactive) | > 100 µM (inactive) | > 100 µM (inactive) | > 100 µM (inactive) | > 100 µM (inactive) | > 100 µM (inactive) | > 100 µM (inactive) | > 100 µM (inactive) | > 100 µM (inactive) | > 100 µM (inactive) |  | > 100 µM (inactive) | > 100 µM (inactive) | > 100 µM (inactive) | > 100 µM (inactive) | 
O=C(CCN1CCN(c2cccc(Cl)c2)CC1)N1CCc2c([nH]c3ccccc23)C1c1cccnc1 (centres undefined) | 4.72 µM (inactive) | 7.4 µM (inactive) | 4.01 µM (inactive) | > 10 µM (inactive) | 7.08 µM (inactive) | > 10 µM (inactive) | 2.47 µM (inactive) | 6.82 µM (inactive) | 1.91 µM (inactive) | 4.19 µM (inactive) | 9.68 µM (inactive) | 2.81 µM (inactive) | 6.25 µM (inactive) | 7.87 µM (inactive) |  | 4.89 µM (inactive) | 3.05 µM (inactive) | 3.37 µM (inactive) | 8.73 µM (inactive) | 
COc1ccc(-c2nc(-c3cnccn3)n(C3OC(CO)C(O)C3O)n2)cc1 (centres undefined) | > 10 µM (inactive) |  | > 10 µM (inactive) | > 10 µM (inactive) | > 10 µM (inactive) | > 10 µM (inactive) | > 10 µM (inactive) | > 10 µM (inactive) | > 10 µM (inactive) | > 10 µM (inactive) | > 10 µM (inactive) | > 10 µM (inactive) |  |  | > 10 µM (inactive) | > 10 µM (inactive) | > 10 µM (inactive) | > 10 µM (inactive) | > 10 µM (inactive) | 
CC(OC1CC(=O)CC2C(=O)C=CC(=O)C12)c1ccccc1 (centres undefined) | 17.6 µM (inactive) | 18.9 µM (inactive) | 17.8 µM (inactive) | 16.2 µM (inactive) | 14.5 µM (inactive) | 13.8 µM (inactive) | 19.2 µM (inactive) | 28.4 µM (inactive) | 16.1 µM (inactive) | 1.53 µM (inactive) | 25.6 µM (inactive) | 19.1 µM (inactive) | 18.8 µM (inactive) | 17.4 µM (inactive) |  | 13.9 µM (inactive) | 16.6 µM (inactive) | 18.7 µM (inactive) | 16.2 µM (inactive) | 
NC(=S)Nc1nnc(-c2ccc(-c3nnc(NC(N)=S)o3)cc2)o1 | > 100 µM (inactive) | > 100 µM (inactive) | > 100 µM (inactive) | > 100 µM (inactive) | > 100 µM (inactive) | > 100 µM (inactive) | > 100 µM (inactive) | > 100 µM (inactive) | > 100 µM (inactive) | > 100 µM (inactive) | > 100 µM (inactive) | > 100 µM (inactive) | > 100 µM (inactive) | > 100 µM (inactive) |  | > 100 µM (inactive) | > 100 µM (inactive) | > 100 µM (inactive) | > 100 µM (inactive) | 
COc1ccc(/C=C2\N=C(c3ccccc3)OC2=O)cc1OC(C)=O | > 100 µM (inactive) | > 100 µM (inactive) | > 100 µM (inactive) | > 100 µM (inactive) | 39.8 µM (inactive) | 51.4 µM (inactive) | 48.9 µM (inactive) | > 100 µM (inactive) | 93.5 µM (inactive) |  | 52.5 µM (inactive) | > 100 µM (inactive) | 63 µM (inactive) | 82.8 µM (inactive) | 53.2 µM (inactive) | 56 µM (inactive) |  | 99.8 µM (inactive) |  | 
Cc1cccc(NC(=S)Nc2ccc(Cl)cc2)n1 |  | > 100 µM (inactive) | > 100 µM (inactive) | > 100 µM (inactive) | > 100 µM (inactive) | > 100 µM (inactive) |  | > 100 µM (inactive) | > 100 µM (inactive) |  | > 100 µM (inactive) | > 100 µM (inactive) | > 100 µM (inactive) | > 100 µM (inactive) | > 100 µM (inactive) | > 100 µM (inactive) | 3.1 µM (inactive) | > 100 µM (inactive) | > 100 µM (inactive) | 
FC(F)(F)c1ccccc1N1CCN(c2nc(-c3cccs3)nc3ccc(Br)cc23)CC1 | 27.6 µM (inactive) |  | 15.8 µM (inactive) | 23 µM (inactive) | 44.4 µM (inactive) | 38.6 µM (inactive) | 10.9 µM (inactive) | 50.7 µM (inactive) | 4.58 µM (inactive) | 35 µM (inactive) | 24.9 µM (inactive) | 37.6 µM (inactive) | 14.6 µM (inactive) | 11.6 µM (inactive) | 1.06 µM (active) | 38.2 µM (inactive) | 13.4 µM (inactive) | 38.7 µM (inactive) | 24.4 µM (inactive) | 
CCCCCCC(C)CC(CCCCCC)NCCOC(=O)c1ccc([N+](=O)[O-])cc1 (centres undefined) | 31.2 µM (inactive) |  | 12 µM (inactive) | 14.5 µM (inactive) | 13.4 µM (inactive) | 13.6 µM (inactive) |  | 15.9 µM (inactive) | 3.72 µM (inactive) | 13.8 µM (inactive) | 14.4 µM (inactive) | 9.46 µM (inactive) | 14.3 µM (inactive) | 14.1 µM (inactive) | 14.1 µM (inactive) | 14.9 µM (inactive) | 14.1 µM (inactive) |  | 13.7 µM (inactive) | 
CCOC(=O)CCN1C(=O)C(=O)N(c2ccc(OC)cc2)C1=S | > 100 µM (inactive) | > 100 µM (inactive) | > 100 µM (inactive) | 16 µM (inactive) | > 100 µM (inactive) | > 100 µM (inactive) |  | > 100 µM (inactive) | 69.2 µM (inactive) | 14.8 µM (inactive) | > 100 µM (inactive) | > 100 µM (inactive) | > 100 µM (inactive) | > 100 µM (inactive) |  | > 100 µM (inactive) | 39.1 µM (inactive) |  | > 100 µM (inactive) | 97.5 µM (inactive)
COC(=O)CCC(=O)Nc1ccc(Cl)cc1C | > 100 µM (inactive) | > 63 µM (inactive) | > 100 µM (inactive) | 14.3 µM (inactive) | > 22.4 µM (inactive) | > 100 µM (inactive) | 43.9 µM (inactive) | > 100 µM (inactive) | > 100 µM (inactive) | 3.41 µM (inactive) | > 74.5 µM (inactive) | > 67.1 µM (inactive) | > 92.9 µM (inactive) | > 64 µM (inactive) |  | > 50.8 µM (inactive) | 15.5 µM (inactive) | > 100 µM (inactive) | > 55.2 µM (inactive) | 
Cc1ccc(S(=O)(=O)OC2CSSCC2OS(=O)(=O)c2ccc(C)cc2)cc1 (centres undefined) | 23.4 µM (inactive) | 20.9 µM (inactive) | 15.3 µM (inactive) | 7.89 µM (inactive) | 14 µM (inactive) | 14.4 µM (inactive) | 13.3 µM (inactive) | 17.3 µM (inactive) | 20.9 µM (inactive) | 10.9 µM (inactive) | 12.8 µM (inactive) | 10.2 µM (inactive) | 15.7 µM (inactive) | 16.8 µM (inactive) |  | 12.6 µM (inactive) | 14.1 µM (inactive) | 12.6 µM (inactive) | 29.8 µM (inactive) | 
Cc1nnc2n1N=C(c1cc(F)c(Cl)cc1Cl)/C(=C/c1ccc(-c3ccc([N+](=O)[O-])cc3)o1)S2 | > 100 µM (inactive) |  |  | > 100 µM (inactive) | 71.8 µM (inactive) | 39.6 µM (inactive) | > 100 µM (inactive) | > 100 µM (inactive) | > 100 µM (inactive) | 32.7 µM (inactive) |  | > 100 µM (inactive) | 56.9 µM (inactive) | > 100 µM (inactive) | 44 µM (inactive) | 78.3 µM (inactive) | 69.2 µM (inactive) | > 100 µM (inactive) | > 100 µM (inactive) | 
COC(=O)CCC1(NS(=O)(=O)c2ccc(C)cc2)CCC(C(C)(C)C)CC1 (centres undefined) | 16.3 µM (inactive) | > 10 µM (inactive) | 18 µM (inactive) | 11.9 µM (inactive) | 14.3 µM (inactive) | 16.7 µM (inactive) | 10.3 µM (inactive) | 12.2 µM (inactive) | 14.6 µM (inactive) | 5.16 µM (inactive) | 14.3 µM (inactive) | 6.95 µM (inactive) | 5.62 µM (inactive) | 14.6 µM (inactive) |  | 14.4 µM (inactive) | 13.1 µM (inactive) | 12.7 µM (inactive) | > 10 µM (inactive) | 
